# Measurements published in patent publication US12161636B2, “Method of increasing lifespan in mammals” (priority 2023, dated 2024).
# “And” between values parts separate entries of the source, which are not always exact repeats. Identical values can stand only once. “Also recorded” adds a separate entry of the source.
# Tests used:
# client-owned dogs = experiment: Randomized, masked, placebo-controlled field pilot study on aging biomarkers (Example 6); format: in vivo, dog
# Excerpt: The effects of Pioglitazone aging biomarkers in client-owned dogs can be determined. Approximately 60 dogs are enrolled and randomized into two groups at a 3:1 ratio of treatment to control. Dogs can be screened on visit 1, which is 7 days before the study, and complete screening on visit 2, Day 0 of the study. The treatment can be randomized with dosing beginning on Day 0. The study has participant dogs enrolled for approximately 3 months, with evaluation visits about every 30 days for biomarker measurements and safety evaluations. The HRQL, CFI, insulin, and FFA blood levels are measured.
# Fasting insulin. Dogs should be fasted for 12 hours before blood draw for fasting insulin. If the dog is not fasted before the blood collection, the Protocol Deviation: Subject Level eCRF must be completed.
# The study will be a multi-site, field pilot study. The design is a randomized, masked, placebo-controlled study in client-owned dogs. The study will contain two treatment groups randomized at a 3:1 ratio in Table 10 below.
# The study will enroll an estimated 60 dogs across all study sites. Approximately 45 dogs will be treated with IVP, and approximately 15 dogs will be treated with CP. Additional dogs may be enrolled if initial attrition rates exceed the anticipated level. Likewise, fewer dogs may be enrolled if the study ends before full enrollment.
# Drug Administration. IVP/CP will be administered by the Owner to the subject once daily starting at study visit 2 and for the duration of the study. The administration route for IVP and CP is by mouth (PO).
# dogs [1] = settings: 12 weeks; oral 30, 60, 150 mg/kg/day; cited from earlier work
# Beagle dogs [2] = system: Beagle dogs
# Procedure: This 17-week HFD design, metabolic reversal study was conducted on 4 groups of 12 Beagle dogs each. All dogs included in the study were males, aged 3-7 years, weighing 12.05-22.95 kg. After 63 days (9 weeks) of normal diet or HFD-feeding, Placebo was administered daily by mouth to Groups 1 and 2 while pioglitazone was administered daily by mouth to Groups 3 and 4.
# Animals were fed their daily food ration (g) as a split ration. Each feeding (AM or PM) consisted of approximately half the animal's daily food ration and was offered approximately 4 hours apart. Dogs were given approximately 2 hours to consume each ration and any remaining food was weighed back for each feeding.
# All dogs were fed ad libitum “normal diet” (ND) consisting of 55% fat for all baseline measurements prior to study start. Prior to the study start, dogs were randomly assigned to either ND or HFD consisting of 74% fat, on which they remained for approximately 9 weeks. After 9 weeks, HFD-fed animals were further randomized to treatment groups prior to dosing based on fasting insulin levels as the primary factor and total body weight as the secondary factor. Dogs in the ND group were continued on ND through the conclusion of the study. Blood collections for Chemistry, Haematology, Triglycerides, Cholesterol, Metabolomics and Lipidomics, efficacy Biomarkers (Adiponectin, Fasting Insulin, and Leptin), pioglitazone pharmacokinetics, Cytokines (IL-6 and TNFa) and Non-esterified fatty acids (NEFA) were performed throughout the study to assess the diet and drug-related effects on markers of safety and metabolic function. Baseline (Day −56) and Pre-Treatment (Day 0) readings of each parameter were compared to Treatment (Day 57) readings.
# OGTTs were performed during the Pre-Treatment (Day −14) and Treatment (Day 42) phases to assess glucose and insulin kinetics and insulin sensitivity. OGTTs were carried out as previously described by Coate et al., 2010. Briefly, dogs were fasting overnight prior to conducting the procedure. Blood was sampled and serum and plasma separated at −20 and 0 minutes pre-glucose bolus to establish fasting glucose and insulin values. At 0 minutes (t=0), a glucose bolus (0.9 g/kg, p.o.) was delivered. Blood was collected at 5, 10, 20, 30, 40, 50, 60, 70, 80, 90, 120, 180 and 240 minutes post-glucose bolus. Serum was then analyzed for glucose and plasma was analyzed for insulin levels at each time point.
# Dogs were fasted for a minimum of 12 hours prior to the first blood draw of each sampling day. D2O and ^2H2^18O were prepared with autoclaved glassware and utensils, weighed out separately, and drawn into separate syringes. Body weights were taken the day of sampling and prepared D2O and ^2H2^18O were drawn into separate syringes per animal and weighed to the third decimal place prior to administration. Two milliliters (mL) of blood was collected prior to administration of 50 mg/kg of 99% D2O and 150 mg/kg of 97% ^2H2^18O via oral syringe. Blood samples were then collected at 2 h, 24 h, 72 h, 120 h and 168 h after initial D2O+^2H2^18O administration. Following collection, blood was plasma separated in K2EDTA tubes and were stored at −80° C. until analysis.
# Individual and summary statistics, arithmetic means, percentage change and within and between group comparisons were done.
# Subjects were administered Pioglitazone treatment, and fatty acids analysis was performed from blood samples of subjects. Fatty acids were detected and analyzed by species and quantified. Additionally, the effects of Pioglitazone on each different species of fatty acids were analyzed, as shown in FIG. 6B (Palmitic Acid), FIG. 6C (Linoleic Acid), and FIG. 6D (Oleic Acid).
# dogs [3] = settings: dog, in vivo, cited from earlier work
# Beagle dogs [4] = experiment: Pioglitazone started 2 weeks before HFD to prevent metabolic dysfunction; OGTT and HIEG clamp (Example 5); format: in vivo, dog
# Excerpt: The purpose of this study was to assess the impact of pioglitazone on HFD-induced insulin resistance, hyperinsulinemia and fatty acid regulation in beagle dogs. We hypothesized that administration of pioglitazone to HFD-fed, metabolically dysfunctional dogs would (1) upregulate adiponectin levels (2) protect whole body insulin sensitivity as measured by an oral glucose tolerance test (OGTT) and hyperinsulinemic euglycemic clamp (HIEG) and (3) prevent increased deleterious fatty acid levels in the face of a HFD.
# Study Design: Twenty four animals (between 1 and 2 years old) were acclimated for at least 2 weeks and surgically implanted with a femoral artery catheter under anesthesia. 2 baseline tests were performed before any treatment: an OGTT and a HIEG clamp.
# The dogs were then randomly assigned to one of 3 groups: a placebo group (n=8) that received an empty capsule daily, a group that received 1 mg/kg pioglitazone in the form of a 15 mg pill (Dose 1, n=8), a group that received 2 mg/kg pioglitazone in the form of […] (Dose 2, n=8). Pioglitazone pills (Actos, Teva Pharmaceuticals, NJ) were given daily immediately before feeding and flushed with 5 mL of water.
# Two weeks after the treatment started, all the animals were put on a HFD (Research Diet 5SQ1, Test Diet from Purina). On Day 46 and 56 after the start of the pioglitazone treatment, the animals were given an OGTT and a HIEG clamp respectively to compare to their baseline metabolic response. On day 46 and 56, placebo and pioglitazone were given one hour before the gavage and one hour before the start of the somatostatin infusion. The same amount of glucose as the initial OGTT study was given and the same rate of insulin and hormone was given during the clamp despite the gain weight of the animal, because we know that the animals mainly gain fat, a tissue that is unresponsive to the level of insulin.
# Additionally, every 2 weeks, blood was harvested from each animal for multiple chemical measurements (Adiponectin, Superchem panel (performed by Antech Diagnostics)) before pioglitazone administration and feeding. Pioglitazone was also measured every 2 weeks in the serum, harvested 1 hour after pill administration and feeding.
# dogs [5] = settings: cited from earlier work
# [6] = subjects 001-SAR-007 and 003-BAK-018
# [7] = HFD-fed Beagle dogs, 1 or 2 mg/kg/day by mouth
# [8] = HFD-fed Beagle dogs, vs HFD-fed placebo group
# [9] = beagle dogs on HFD, both doses, Day 56, excluding 4 dogs with non-comparable insulins
# [10] = beagle dogs on HFD, clamp experiments
compound,measurement,setting,value
CCc1ccc(CCOc2ccc(CC3SC(=O)NC3=O)cc2)nc1.Cl (stereo not shown) [pioglitazone],TBili,"client-owned dogs; Subject 001-SAR-007, less than one month after starting, screening 0.5",0.2 mg/dL
same,insulin,"client-owned dogs; Subject 001-SAR-007, less than one month after starting, screening 76.8, reference range 5.2-41.5",16.2 uIU/mL
same,ALP,"client-owned dogs; Subject 001-SAR-007, less than one month after starting, screening 177, reference range 5-160",88 U/L
same,AST,"client-owned dogs; Subject 001-SAR-007, less than one month after starting, screening 182, reference range 16-55",22 U/L
same,ALT,"client-owned dogs; Subject 001-SAR-007, less than one month after starting, screening 469, reference range 18-121",48 U/L
same,ALP,"client-owned dogs; Subject 003-BAK-016, screening 241 U/L, reference range 5-160 U/L",remained elevated
same,insulin,"client-owned dogs; Subject 003-BAK-016, subsequent visits before visit 6, screening 96.6, reference range 5.2-41.5",62.2 uIU/mL and 52.9 uIU/mL
same,insulin,"client-owned dogs; Subject 003-BAK-016, visit 6, 90 days later, screening 96.6",42.3 uIU/mL
same,insulin,"client-owned dogs; Subject 003-BAK-018, visit 4 (approximately day 30), screening 66.3, reference range 5.2-41.5",15.3 uIU/mL
same,ALP,"client-owned dogs; Subject 003-BAK-018, visit 4 (approximately day 30), screening 1603, reference range 5-160",774 U/L
same,liver enzymes,client-owned dogs; all 3 dogs with elevated baseline insulin,reduction in liver enzymes
same,average reduction in insulin levels,"client-owned dogs; client-owned dogs, baseline to day 90, not statistically significant (p=0.538)",2.35 uIU/mL
same,average reductions in insulin levels compared with control group,"client-owned dogs; client-owned dogs, p=0.171",trending lower
same,gross lipemia in the blood samples,client-owned dogs; [6],eliminating gross lipemia
same,triglycerides,client-owned dogs; [6],reduction or normalization
same,insulin levels in dogs with elevated baseline insulin levels,client-owned dogs; three pioglitazone-treated dogs,notable effect
same,frequency of clinical signs,dogs [1],The frequency appeared dose-dependent.
same,caloric intake,Beagle dogs [2]; HFD-fed Beagle dogs,without any effects
same,food consumption,Beagle dogs [2]; HFD-fed Beagle dogs,without any effects
same,leptin levels,Beagle dogs [2]; HFD-fed Beagle dogs,without any effects
same,HFD-induced elevation of SFA,Beagle dogs [2]; [7],reversed HFD-induced elevation of SFA
same,palmitic acid,Beagle dogs [2]; [7],decreases in palmitic acid
same,"levels of metabolically deleterious fatty acids (SFAs, palmitic acid, linoleic acid, oleic acid)","Beagle dogs [2]; HFD-fed Beagle dogs, 1 or 2 mg/kg/day by mouth, GC-MS",dose dependently regulates
same,glucose excursion during glucose tolerance test,"Beagle dogs [2]; HFD-fed Beagle dogs, 1 or 2 mg/kg/day by mouth, OGTT Day 42",no impact
same,adiponectin,"Beagle dogs [2]; HFD-fed Beagle dogs, 1 or 2 mg/kg/day by mouth, biomarker of target engagement",significantly upregulates
same,fasting glucose measurements,"Beagle dogs [2]; HFD-fed Beagle dogs, pioglitazone 1 or 2 mg/kg/day by mouth after 9 weeks HFD",no impact
same,size of adipocytes in the viscera (histological examination),"Beagle dogs [2]; HFD-fed Beagle dogs, visceral and subcutaneous adipose tissue",decreased the size of adipocytes in the viscera
same,body composition: fat mass,Beagle dogs [2]; [8],increases in fat mass
same,circulating cholesterol,Beagle dogs [2]; [8],significantly reduced
same,circulating triglycerides,Beagle dogs [2]; [8],significantly reduced
same,fatty acid profiles,Beagle dogs [2]; [8],normalized detrimental fatty acid profiles
same,tolerability of administration,"Beagle dogs [2]; dog, in vivo",tolerated Placebo/pioglitazone administration well
same,serum albumin,dogs [3]; 10 mg/kg/day,Decrease in serum albumin and protein
same,serum protein,dogs [3]; 10 mg/kg/day,Decrease in serum albumin and protein
same,hematocrit,dogs [3]; 10 mg/kg,Reduction in hematocrit in both sexes
same,insulin response during the OGTT,"Beagle dogs [4]; beagle dogs on HFD, 1 mg/kg and 2 mg/kg daily, Day 46",reduced compared to the placebo group
same,glucose metabolism,"Beagle dogs [4]; beagle dogs on HFD, OGTT",normalize glucose metabolism without increasing insulin secretion
same,"GIR (glucose infusion rate), HIEG clamp",Beagle dogs [4]; [9],able to overcome the defect
same,"Rd (rate of glucose disappearance), HIEG clamp",Beagle dogs [4]; [9],able to overcome the defect
same,fasting FFA levels,Beagle dogs [4]; [10],reduced
same,inhibition of lipolysis,Beagle dogs [4]; [10],improved
same,circulating adiponectin,"Beagle dogs [4]; beagle dogs, 1 mg/kg and 2 mg/kg daily, by Day 14, vs placebo group",significant increase; also recorded: larger and more sustained than in the placebo group
same,nontoxic dose,"dogs [5]; 26 weeks, oral 0, 1, 3, 10 mg/kg/day",be 3 mg/kg/day.
same,hydropericardium,"dogs [5]; dog, in vivo, 10 mg/kg",hydroperi-
same,leukocytes,"dogs [5]; dog, in vivo, 10 mg/kg",increase in platelet and leukocytes
same,platelet,"dogs [5]; dog, in vivo, 10 mg/kg",increase in platelet and leukocytes
